ChEMBL document CHEMBL1201862, “PubChem BioAssay data set” (2004)
Calls of active or inactive are those of the source.

Legend:
[1] = target: Cytochrome P450 3A4 (Homo sapiens, UniProt P08684);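 note: CYP3A4 tested as one member of a cytochrome P450 panel screen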
[2] = target: Cytochrome P450 2C9 (Homo sapiens, UniProt P11712)
[3] = Luminescence Cell-Based Dose Confirmation HTS to Identify Activators of 5'UTR Stem-Loop Driven Alpha-Synuclein mRNA Translation in H4 Neuroglioblastoma Cells. [Related pubchem assays: 1829 (Project Summary), 1814 (Primary HTS)]; assay type: functional
[4] = Luminescence Cell-Based Dose Response HTS to Identify Activators of Luciferase Translation or Activity in H4 […] Cells. [Related pubchem assays: 1829 (Project Summary), 1814 (Primary HTS)]; assay type: functional
[5] = test system: H4; assay: Luminescence Cell-Based Dose Response HTS to Identify Activators of 5'UTR Stem-Loop Driven Prion Protein mRNA Translation in H4 Neuroglioblastoma Cells. [Related pubchem assays: 1829 (Project Summary), 1814 (Primary HTS)]; assay type: functional; details: Homo sapiens
[6] = cells; assay type: functional
[7] = target: T1, Cytochrome P450 1A2 (Homo sapiens, UniProt P05177);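 note: PubChem cytochrome P450 panel assay, CYP1A2 panel member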
T1 sequence (P05177 whole entry): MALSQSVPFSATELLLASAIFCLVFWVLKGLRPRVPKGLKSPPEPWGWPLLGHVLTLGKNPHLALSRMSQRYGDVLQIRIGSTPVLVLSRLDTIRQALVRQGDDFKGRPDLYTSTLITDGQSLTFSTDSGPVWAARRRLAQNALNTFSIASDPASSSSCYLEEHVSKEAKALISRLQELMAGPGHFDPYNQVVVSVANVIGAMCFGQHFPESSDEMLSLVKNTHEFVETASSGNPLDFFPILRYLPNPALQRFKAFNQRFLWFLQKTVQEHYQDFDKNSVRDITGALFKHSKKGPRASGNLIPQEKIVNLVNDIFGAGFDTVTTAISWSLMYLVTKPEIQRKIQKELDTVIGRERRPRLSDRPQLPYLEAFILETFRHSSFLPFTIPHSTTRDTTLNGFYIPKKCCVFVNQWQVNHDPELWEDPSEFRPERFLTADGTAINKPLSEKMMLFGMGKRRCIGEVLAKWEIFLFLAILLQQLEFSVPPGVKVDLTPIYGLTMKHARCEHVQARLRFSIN

[8] = target: T2, Corticotropin-releasing factor receptor 2/Corticotropin-releasing factor-binding protein (Homo sapiens, UniProt P24387+Q13324); assay: Dose Response confirmation of uHTS hits for small molecule antagonists of the CRF-binding protein and CRF-R2 receptor complex.; assay type: functional; details: read-out: IC50_Mean
T2 sequence (Q13324 whole entry): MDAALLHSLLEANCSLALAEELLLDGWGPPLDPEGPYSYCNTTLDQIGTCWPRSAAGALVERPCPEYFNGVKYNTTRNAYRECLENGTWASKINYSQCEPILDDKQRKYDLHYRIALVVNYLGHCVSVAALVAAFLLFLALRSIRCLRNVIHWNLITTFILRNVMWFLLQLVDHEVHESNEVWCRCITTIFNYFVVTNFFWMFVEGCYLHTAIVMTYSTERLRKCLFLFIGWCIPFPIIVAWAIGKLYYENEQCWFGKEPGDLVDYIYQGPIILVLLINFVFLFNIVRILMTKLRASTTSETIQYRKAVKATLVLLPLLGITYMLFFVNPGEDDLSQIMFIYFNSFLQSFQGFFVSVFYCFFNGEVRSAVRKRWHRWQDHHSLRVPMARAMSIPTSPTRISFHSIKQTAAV
T2 sequence (P24387 whole entry): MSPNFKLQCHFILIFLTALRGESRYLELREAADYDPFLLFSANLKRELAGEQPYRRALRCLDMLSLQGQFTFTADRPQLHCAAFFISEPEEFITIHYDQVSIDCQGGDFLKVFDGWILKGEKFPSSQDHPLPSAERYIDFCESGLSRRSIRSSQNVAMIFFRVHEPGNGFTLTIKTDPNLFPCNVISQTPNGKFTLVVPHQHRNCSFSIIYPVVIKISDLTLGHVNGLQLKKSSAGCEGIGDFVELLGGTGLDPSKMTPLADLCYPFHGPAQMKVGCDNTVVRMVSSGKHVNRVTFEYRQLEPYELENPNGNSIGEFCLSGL

[9] = target: T2, Corticotropin-releasing factor receptor 2/Corticotropin-releasing factor-binding protein; assay: activators of CRF receptor 2 with binding protein – uHTS hits, confirmation (AID 602473); assay type: functional; details: read-out: EC50_Mean
[10] = NIH-3T3 fibroblast cytotoxicity, dose response, cytotoxicity control, cell-based, fluorescence, Alamar Blue, secondary assay (AID 2327); assay type: functional;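 note: NIH-3T3 mouse fibroblasts cultured with fluconazole at 8 µg/mL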
[11] = C. albicans growth with fluconazole, confirmation, fluorescence, retest (AID 2467); assay type: functional, cell-based
[12] = test system: Streptococcus sp. 'group A'; assay: growth inhibition of control SK(-) GAS strain, dose response, counter-screen for streptokinase expression inhibitor project, luminescence, kanamycin, BacTiterGlo, confirmation (AID 1900); assay type: functional, organism-based
[13] = test system: Streptococcus; assay: Group A Streptococcus viability loss, dose response, counter-screen for streptokinase expression inhibitor project, luminescence, BacTiterGlo (AID 1915); assay type: functional, organism-based;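 note: potency for reduction of bacterial viability or growth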

Chain of Cytochrome P450 3A4 (P08684 whole entry): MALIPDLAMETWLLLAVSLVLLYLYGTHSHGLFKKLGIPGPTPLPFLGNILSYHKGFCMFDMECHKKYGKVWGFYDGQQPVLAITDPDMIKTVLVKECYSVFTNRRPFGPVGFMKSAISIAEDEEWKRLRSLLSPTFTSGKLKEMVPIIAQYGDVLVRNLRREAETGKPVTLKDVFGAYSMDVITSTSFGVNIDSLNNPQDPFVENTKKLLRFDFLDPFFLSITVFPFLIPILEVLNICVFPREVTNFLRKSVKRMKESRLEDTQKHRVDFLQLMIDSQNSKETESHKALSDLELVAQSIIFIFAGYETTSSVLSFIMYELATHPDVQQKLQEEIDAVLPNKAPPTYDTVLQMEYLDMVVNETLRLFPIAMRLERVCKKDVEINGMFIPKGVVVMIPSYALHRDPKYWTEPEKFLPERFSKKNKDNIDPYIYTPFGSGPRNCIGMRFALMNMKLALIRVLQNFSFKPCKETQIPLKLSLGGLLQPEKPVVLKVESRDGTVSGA
Chain of Cytochrome P450 2C9 (P11712 whole entry): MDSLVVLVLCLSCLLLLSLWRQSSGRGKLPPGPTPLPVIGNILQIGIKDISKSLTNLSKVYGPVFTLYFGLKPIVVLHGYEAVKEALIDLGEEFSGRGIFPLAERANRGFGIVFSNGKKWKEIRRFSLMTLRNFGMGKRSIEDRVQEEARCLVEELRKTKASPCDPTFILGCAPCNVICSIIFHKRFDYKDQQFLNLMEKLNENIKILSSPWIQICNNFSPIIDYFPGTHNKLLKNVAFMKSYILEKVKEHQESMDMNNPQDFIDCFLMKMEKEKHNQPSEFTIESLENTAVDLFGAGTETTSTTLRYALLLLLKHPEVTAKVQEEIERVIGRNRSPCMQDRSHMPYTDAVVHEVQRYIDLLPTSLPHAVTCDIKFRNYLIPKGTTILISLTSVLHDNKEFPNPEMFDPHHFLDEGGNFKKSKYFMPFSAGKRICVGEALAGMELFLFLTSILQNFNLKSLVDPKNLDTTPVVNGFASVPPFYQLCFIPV

CC/C=C\CC[C@H](OC(=O)c1ccc(Br)cc1)C1=CCCCC1=O
AC50 [1]: 3.98 µM (inconclusive) | AC50 [2]: 3.16 µM (inconclusive)

O=C(N/N=C/c1ccc(N2CCOCC2)s1)c1ccccc1Cl
EC50 [3]: 20.9 µM (active) | EC50 [4]: 12 µM (active) | EC50 [5]: 48.6 µM (active)

Cc1ccc(NC(=O)CO/N=C/c2ccc(N(C)C)cc2)cc1
IC50 [6]: > 50 µM (active)

COc1ccc(C2C(C#N)=C(N)Nc3nc4ccccc4n32)cc1 (centres undefined)
EC50 [3]: 12.1 µM (active) | EC50 [4]: 16.7 µM (active) | EC50 [5]: 32.9 µM (active)

c1ccc(C2CC2)c(OCC2=NCCN2)c1 [CIRAZOLINE]
AC50 [7]: 15.8 µM (inconclusive)

COCCCn1c(SCC(=O)Nc2ccccc2F)nnc1-c1ccoc1C
IC50 [8]: > 47.1 µM (inactive) | EC50 [9]: > 53 µM (inactive)

COc1ccc(-n2c(=O)c(-c3cccs3)nc3cnc(Oc4ccccc4)nc32)cc1
AC50 [2]: 12.6 µM (inconclusive)

CCOC(=O)N1CCN(S(=O)(=O)c2ccc(C)c(C)c2C)CC1
IC50 [8]: > 47.1 µM (inactive) | EC50 [9]: > 53 µM (inactive)

O=C(CSc1nc2ccccc2c(=O)n1Cc1ccccc1)NCc1ccco1
AC50 [7]: 1.41 µM (inconclusive) | AC50 [1]: 39.8 µM (inconclusive)

COc1cc(SC)ccc1C(=O)OCC(=O)NC1CC1
EC50 [10]: > 150 µM (inactive) | EC50 [11]: > 38 µM (not active)

O=C1CCCN1CC(CN1CCOCC1)Sc1nnnn1-c1ccccc1 (centres undefined)
AC50 [2]: 6.31 µM (inconclusive)

CCOc1ccccc1NC(=O)CNC(=O)Cc1ccccc1
IC50 [8]: > 47.1 µM (inactive) | EC50 [9]: > 53 µM (inactive)

O=C(Nc1ccccc1)[C@@]12C[C@@H]1/C(=N/O)c1ccccc1O2
AC50 [2]: 20 µM (inconclusive)

CCOC(=O)c1ccccc1OCc1cc(/C=N/n2cnnc2)ccc1OC
EC50 [10]: > 150 µM (inactive) | EC50 [11]: > 38 µM (not active) | AC50 [7]: 1.26 µM (inconclusive)

Nc1ccc2nc(SCc3ccc([N+](=O)[O-])cc3)sc2c1
EC50 [10]: > 150 µM (inactive) | EC50 [11]: > 38 µM (not active)

COc1ccc(-n2c(=O)cnc3cnc(N4CCNCC4)nc32)cc1
AC50 [2]: 39.8 µM (inconclusive)

Cc1ccc(CSc2nnc([C@@H]3CCCN3)o2)cc1
AC50 [1]: 3.55 µM (inconclusive) | AC50 [2]: 10 µM (inconclusive)

COC(=O)C1CC(=O)N(c2ccc(OCc3ccccc3Cl)cc2)C1 (centres undefined)
IC50 [6]: 2.2 µM (active)

CC(C)(CNC(=O)c1ccc(Br)o1)CNC(=O)c1ccc(Br)o1
IC50 [8]: > 47.1 µM (inactive) | EC50 [9]: > 53 µM (inactive)

Cc1cccc(-c2nsc(SCC(=O)N3CCCC3)n2)c1
EC50 [4]: 0.104 µM (active) | EC50 [5]: 0.217 µM (active)

Cc1ccc(NC(=O)NNC(=O)c2cc3ccccc3cc2O)c(C)c1
EC50 [10]: > 150 µM (inconclusive)

COC(=O)[C@@H]1CC[C@H](C)[C@@H](c2ccc(C)cc2)N1C(=O)c1ccc(/C=N\O[C@@H](C)CN2CCCCc3nc(C)c(C)cc32)cc1
AC50 [1]: 3.16 µM (inconclusive) | AC50 [2]: 3.16 µM (inconclusive)

O=C(CC1C(=O)NCCN1C(=O)Nc1ccccc1)Nc1ccc2c(c1)OCO2 (centres undefined)
IC50 [8]: > 47.1 µM (inactive) | EC50 [9]: > 53 µM (inactive)

O=C(CSCc1cccc(CSCC(=O)Nc2ccccc2)n1)Nc1ccccc1
EC50 [10]: > 150 µM (inactive) | EC50 [11]: > 38 µM (not active)

CC(C)(C)c1ccc(OCC(=O)NNC(=S)NC(=O)c2ccco2)c(Br)c1
EC50 [12]: < 0.06 µM (active) | EC50 [13]: 0.1 µM (active)

COc1cccc(OCc2nc3ccccc3c(=O)n2N)c1
EC50 [10]: > 150 µM (inconclusive) | EC50 [11]: 10.1 µM (active)

Cc1c(Cl)cccc1NC(=O)C(=O)NNC(=O)c1ccccc1F
IC50 [6]: 15 µM (active)

Cc1nc2cnc(Oc3ccccc3)nc2n(CCc2ccccc2)c1=O
AC50 [7]: 3.16 µM (inconclusive) | AC50 [1]: 20 µM (inconclusive)

COc1cc2c(cc1NC(=O)c1ccc3c(c1)OCO3)oc1ccccc12
EC50 [3]: 5.37 µM (active) | EC50 [4]: 43.1 µM (active) | EC50 [5]: 85.3 µM (active)

Cc1noc(C)c1C(=O)N1CCC2(CCN(C(=O)NC(C)C)CC2)CC1
AC50 [7]: 5.01 µM (inconclusive)

NS(=O)(=O)c1cccc(NC(S)=NCc2ccc3c(c2)OCO3)c1
EC50 [10]: > 160 µM (inactive) | EC50 [11]: > 38 µM (not active)

COC[C@H]1OC(=O)c2coc3c2[C@@]1(C)C1=C(C3=O)[C@H]2CCC(=O)[C@@]2(C)C[C@H]1OC(C)=O
AC50 [7]: 31.6 µM (inconclusive) | AC50 [1]: 7.94 µM (inconclusive)

Cc1ccc(C2=Nc3ccccc3S[C@@H](c3cccc([N+](=O)[O-])c3)C2)cc1
AC50 [7]: 2 µM (inconclusive)

Cn1c(=O)c(Oc2ccc(F)cc2)c(O)c2ccccc21
IC50 [6]: 1.87 µM (active)

COc1ccc(/C=C/c2nc(O)cc(-c3ccccc3)n2)cc1
IC50 [8]: > 47.1 µM (inactive) | EC50 [9]: > 53 µM (inactive)

O=S(=O)(c1ccccc1)N1CCC[C@@]2(CCN(Cc3nccs3)C2)C1
AC50 [2]: 31.6 µM (inconclusive)

COc1ccccc1CNc1ncnc2ccc(-c3ccc(N(C)C)cc3)cc12
AC50 [2]: 0.631 µM (inconclusive)

O=C(NC1CC1)c1cccc2c1C(=O)c1ccc(N3CCC(Cc4ccccc4)CC3)cc1S2(=O)=O
EC50 [9]: 7.05 µM (active)

CCOC(=O)c1ccc(NC(=O)c2cccc3c2C(=O)N(CC2CCCO2)C3)cc1 (centres undefined)
IC50 [8]: > 47.1 µM (inactive) | EC50 [9]: > 53 µM (inactive)

CCN1CCc2c(sc(NC(=O)c3ccc(S(=O)(=O)N(CC)c4ccccc4)cc3)c2C(N)=O)C1
EC50 [9]: 4.85 µM (active)

CCCCCCc1cc2cc(C(=O)Nc3ccccc3OC)c(=O)oc2cc1O
EC50 [9]: 1.97 µM (active)

COC(=O)[C@@H]1CC[C@H](C)[C@@H](c2ccc(C)cc2)N1C(=O)c1ccc(/C=N\O[C@@H]2O[C@H](COC(C)=O)[C@H](OC(C)=O)[C@H](OC(C)=O)[C@H]2OC(C)=O)cc1
AC50 [2]: 1.58 µM (inconclusive)

O=C(Nc1ccc2c(c1)OCCO2)c1cc2sccc2n1Cc1ccc(F)cc1
EC50 [3]: 0.94 µM (active) | EC50 [4]: 3.85 µM (active) | EC50 [5]: > 120 µM (not active)

Cc1cc(S(=O)(=O)NC2CCCCC2)ccc1OCC(=O)NCC1CCCO1 (centres undefined)
IC50 [8]: > 47.1 µM (inactive) | EC50 [9]: > 53 µM (inactive)

O=C(COc1ccc2ccccc2c1)N/N=C/c1ccccn1
IC50 [6]: > 50 µM (active)

C=C1[C@@H](O)C2C=CC[C@H](C)C(=O)[C@@](C)(O)C=C[C@@H](OC(C)=O)[C@@]23C(=O)N[C@H](Cc2ccccc2)[C@@H]3[C@@H]1C (some centres undefined)
AC50 [1]: 15.8 µM (inconclusive) | AC50 [2]: 31.6 µM (inconclusive)

O=C(NCc1ccccc1)C12CN(Cc3ccccc3)CC1C(c1cccc([N+](=O)[O-])c1)=NO2 (centres undefined)
AC50 [7]: 15.8 µM (inconclusive)

Cn1c(=O)c(-c2cc(F)cc(F)c2)nc2cnc(N3CCOCC3)nc21
AC50 [7]: 5.01 µM (inconclusive)

CC(C)=CC(=O)OCC(=O)Nc1ncc(Cl)c(C)c1Cl
AC50 [2]: 0.0631 µM (inconclusive)

Cc1ccc(C2=NN(C)c3nc4ccccc4n3C2)cc1
IC50 [6]: 8.22 µM (active)

CCN1CCN(CC(=O)N2N=CCC2c2ccccc2)CC1 (centres undefined)
IC50 [8]: > 47.1 µM (inactive) | EC50 [9]: > 53 µM (inactive)
